Experimental data reported in patent US6852737B2 (Recordati Ireland Limited, priority 2001, dated 2005).
“And” between values parts separate entries of the source, which are not always exact repeats. Identical values can stand only once. “Also recorded” adds a separate entry of the source. Counter-ions that a name gives are not always drawn. Marks after values point to notes of the source that are not given here.

Tests used:
[1] = Hygroscopicity (DVS analysis); format: physicochemical; conditions: 25° C.
Protocol: The hygroscopicity of both crystalline Forms (I) and (II) was measured with DVS analysis by means of a water absorption analyzer (SURFACE MEASUREMENT SYSTEM, Marion, Buckinghamshire, UK) according to the following working conditions: […]

[2] = Relative bioavailability in man; format: in vivo; conditions: for AUC0−t, geom. least square mean / Cmax, geom. least square mean / tmax, median / bioequivalence to Form I: 10 mg tablet; for AUC0−t, geom. least square mean / Cmax, geom. least square mean / tmax, median / time of maximum concentration (tmax) compared to the other crystalline form: single dose; for AUC0−t, geom. least square mean: 16 volunteers; for AUC0−t, geom. least square mean / Cmax, geom. least square mean / tmax, median / time of maximum concentration (tmax) compared to the other crystalline form / bioequivalence to Form I: hydrochloride
Protocol: Blood samples were taken at 15 points from time 0 to 24 h post-dosing and plasma concentrations of lercanidipine were determined with a stereoselective analytical method HPLC-MS/MS as described in Example 19a, as validated for man at the same concentration intervals.

[3] = Stability of crystalline forms; format: physicochemical; conditions: hydrochloride
[4] = Bioavailability of crystalline forms in dog; format: in vivo, Beagle dogs
Protocol: A study was carried out on six Beagle dogs to evaluate the bioavailability of crystalline Forms (I) and (II).
Blood samples were taken at given times and plasma concentrations of lercanidipine were determined with a stereoselective analytical method HPLC-MS/MS, according to the following working conditions;
Lercanidipine was extracted from dog plasma by means of a liquid-liquid extraction with a mixture of n-hexane and ethyl ether. The dry residue of the organic phase was taken up with a mixture of methanol and water and a liquid-phase chromatographic separation (LC) was carried out; the two enantiomers of lercanidipine were separated on a CHIROBIOTIC V column (Vancomycin) (particle size […], column size 150×4.6 mm (ASTEC, NJ, USA)) and were detected with a mass spectrometer (MS/MS) by using an electrospray technique.
The analytical method was validated in a concentration range between 0.1 and 20 ng/ml of plasma for both enantiomers. The method has shown to be specific with an accuracy of 15%. The average concentrations of lercanidipine in the tables represent the sum of both enantiomers.

[5] = oral administration; cited from earlier work
isolated rat aorta = conditions: drug removed from the environment of the aortic tissue for 6 hours; cited from earlier work
[6] = 0 h, Mean (dog 2 not included), oral 3 mg/kg
[7] = 0.5 h, Dog 1, oral 3 mg/kg, hydrochloride, 3 mg/kg
[8] = 0.5 h, Dog 3, oral 3 mg/kg, hydrochloride, 3 mg/kg
[9] = 0.5 h, Mean (dog 2 not included), oral 3 mg/kg, hydrochloride, 3 mg/kg
[10] = 1 h, Dog 1, oral 3 mg/kg, hydrochloride, 3 mg/kg
[11] = 1 h, Dog 3, oral 3 mg/kg, hydrochloride, 3 mg/kg
[12] = 1 h, Dog 4, oral 3 mg/kg, hydrochloride, 3 mg/kg
[13] = 1 h, Dog 5, oral 3 mg/kg, hydrochloride, 3 mg/kg
[14] = 1.5 h, Dog 4, oral 3 mg/kg, hydrochloride, 3 mg/kg
[15] = 1.5 h, Dog 6, oral 3 mg/kg, hydrochloride, 3 mg/kg
[16] = 6 h (last sampling time), Mean (dog 2 not included), oral 3 mg/kg, hydrochloride, 3 mg/kg
[17] = Dog 2, oral 3 mg/kg, hydrochloride, 3 mg/kg
[18] = Dog 3, oral 3 mg/kg, hydrochloride, 3 mg/kg
[19] = Dog 4, oral 3 mg/kg, hydrochloride, 3 mg/kg

For `COC(=O)C1=C(C)NC(C)=C(C(=O)OC(C)(C)CN(C)CCC(c2ccccc2)c2ccccc2)C1c1cccc([N+](=O)[O-])c1` (single isomer, unassigned) [Form (I), lercanidipine hydrochloride], the mass change ([1]; 0% RH) was −0.3%, the mass change ([1]; 95% RH) was “+0.15%” and the “AUC0−t, geom. least square mean” value [2] was 8.82 ng·h/mL. The “Cmax, geom. least square mean” value [2] was 3.18 ng/mL, the “tmax, median” value [2] was 1.50* h and the “time of maximum concentration (tmax) compared to the other crystalline form” value [2] was “shorter time”. For the same compound, the stability [3] was “good stability; also recorded: stable”, the “concentration in plasma of lercanidipine (S + R)” value (“concentration in plasma” below) ([4]; 0 h, Dog 1, oral 3 mg/kg) was 0.00 ng/mL and the “concentration in plasma” value ([4]; 0 h, Dog 2, oral 3 mg/kg) was 0.00 ng/mL. The “concentration in plasma” value ([4]; 0 h, Dog 3, oral 3 mg/kg) was 0.00 ng/mL, the “concentration in plasma” value ([4]; 0 h, Dog 4, oral 3 mg/kg) was 0.00 ng/mL and the “concentration in plasma” value ([4]; 0 h, Dog 5, oral 3 mg/kg) was 0.00 ng/mL. For the same compound, the “concentration in plasma” value ([4]; 0 h, Dog 6, oral 3 mg/kg) was 0.00 ng/mL, the “concentration in plasma” value [4, 6] was 0.00 ng/mL and the “concentration in plasma” value [4, 7] was 0.1 ng/mL. For the same compound, the “concentration in plasma” value ([4]; 0.5 h, Dog 2, oral 3 mg/kg, hydrochloride, 3 mg/kg) was 0.20 ng/mL, the “concentration in plasma” value [4, 8] was 0.00 ng/mL and the “concentration in plasma” value ([4]; 0.5 h, Dog 4, oral 3 mg/kg) was 0.00 ng/mL. For the same compound, the “concentration in plasma” value ([4]; 0.5 h, Dog 5, oral 3 mg/kg) was 0.00 ng/mL, the “concentration in plasma” value ([4]; 0.5 h, Dog 6, oral 3 mg/kg) was 0.00 ng/mL and the “concentration in plasma” value [4, 9] was 0.00 ng/mL. For the same compound, the “concentration in plasma” value [4, 10] was 0.59 ng/mL, the “concentration in plasma” value ([4]; 1 h, Dog 2, oral 3 mg/kg, hydrochloride, 3 mg/kg) was 0.29 ng/mL and the “concentration in plasma” value [4, 11] was 0.00 ng/mL. For the same compound, the “concentration in plasma” value [4, 12] was 0.00 ng/mL, the “concentration in plasma” value [4, 13] was 0.00 ng/mL and the “concentration in plasma” value ([4]; 1 h, Dog 6, oral 3 mg/kg) was 0.00 ng/mL. The “concentration in plasma” value ([4]; 1 h, Mean (dog 2 not included), oral 3 mg/kg, hydrochloride, 3 mg/kg) was 0.12 ng/mL, the “concentration in plasma” value ([4]; 1.5 h, Dog 3, oral 3 mg/kg, hydrochloride, 3 mg/kg) was 0.32 ng/mL and the “concentration in plasma” value [4, 14] was 0.00 ng/mL. The “concentration in plasma” value [4, 15] was 0.00 ng/mL, the “concentration in plasma” value ([4]; 1.5 h, Mean (dog 2 not included), oral 3 mg/kg, hydrochloride, 3 mg/kg) was 0.70 ng/mL and the “concentration in plasma” value ([4]; 2 h, Dog 3, oral 3 mg/kg, hydrochloride, 3 mg/kg) was 0.94 ng/mL. For the same compound, the “concentration in plasma” value ([4]; 2 h, Dog 4, oral 3 mg/kg, hydrochloride, 3 mg/kg) was 0.35 ng/mL, the “concentration in plasma” value ([4]; 2 h, Dog 6, oral 3 mg/kg, hydrochloride, 3 mg/kg) was 0.28 ng/mL and the “concentration in plasma” value ([4]; 3 h, Dog 3, oral 3 mg/kg, hydrochloride, 3 mg/kg) was 0.92 ng/mL. For the same compound, the “concentration in plasma” value [4, 16] was 8.5 ± 6.5 ng/mL and 8.50 ng/mL, the “concentration in plasma” value ([4]; 6 h, Dog 1, oral 3 mg/kg, hydrochloride, 3 mg/kg) was 0.80 ng/mL and the “concentration in plasma” value ([4]; 6 h, Dog 5, oral 3 mg/kg, hydrochloride, 3 mg/kg) was 9.73 ng/mL. The “concentration in plasma” value ([4]; 6 h, Dog 6, oral 3 mg/kg, hydrochloride, 3 mg/kg) was 17.83 ng/mL, the Tmax ([4]; Dog 1, oral 3 mg/kg, hydrochloride, 3 mg/kg) was 2.00 h and the Tmax [4, 17] was 4.00 h. The Tmax [4, 18] was 6.00 h, the Tmax [4, 19] was 3.00 h and the Tmax ([4]; Dog 5, oral 3 mg/kg, hydrochloride, 3 mg/kg) was 3.00 h. It also gave a Tmax ([4]; Mean (n = 5, dog 2 not included), oral 3 mg/kg, hydrochloride, 3 mg/kg) of 4.00 h.
In the case of `COC(=O)C1=C(C)NC(C)=C(C(=O)OC(C)(C)CN(C)CCC(c2ccccc2)c2ccccc2)C1c1cccc([N+](=O)[O-])c1` (single isomer, unassigned) [Form (II), lercanidipine hydrochloride], the mass variation ([1]; whole RH range tested (0-95%)) is reported as under 0.05%, the “bioequivalence to Form I” value [2] is reported as “not bioequivalent” and the “bioequivalence to Form I” value ([2]; listed as Form II) is reported as “non equivalent”. The “AUC0−t, geom. least square mean” value [2] was 10.36 ng·h/mL, the “Cmax, geom. least square mean” value [2] was 3.22 ng/mL and the “tmax, median” value [2] was 2.50* h. The “tmax Point Estimate (T/R), median difference” value ([2]; T = Form (II) tablet, R = Form (I) tablet (Zanedip 10 mg)) was 0.75** h, the “time of maximum concentration (tmax) compared to the other crystalline form” value [2] was “delayed” and the stability [3] was “good stability; also recorded: stable”. For the same compound, the “concentration in plasma” value ([4]; 0 h, Dog 1, oral 3 mg/kg) was 0.00 ng/mL, the “concentration in plasma” value ([4]; 0 h, Dog 2, oral 3 mg/kg) was 0.00 ng/mL and the “concentration in plasma” value ([4]; 0 h, Dog 3, oral 3 mg/kg) was 0.00 ng/mL. For the same compound, the “concentration in plasma” value ([4]; 0 h, Dog 4, oral 3 mg/kg) was 0.00 ng/mL, the “concentration in plasma” value ([4]; 0 h, Dog 5, oral 3 mg/kg) was 0.00 ng/mL and the “concentration in plasma” value ([4]; 0 h, Dog 6, oral 3 mg/kg) was 0.00 ng/mL. For the same compound, the “concentration in plasma” value [4, 6] was 0.00 ng/mL, the “concentration in plasma” value [4, 7] was 0.00 ng/mL and the “concentration in plasma” value [4, 8] was 6.99 ng/mL. For the same compound, the “concentration in plasma” value ([4]; 0.5 h, Dog 4, oral 3 mg/kg) was 0.00 ng/mL, the “concentration in plasma” value ([4]; 0.5 h, Dog 5, oral 3 mg/kg) was 0.00 ng/mL and the “concentration in plasma” value ([4]; 0.5 h, Dog 6, oral 3 mg/kg) was 0.00 ng/mL. For the same compound, the “concentration in plasma” value [4, 9] was 1.40 ng/mL, the “concentration in plasma” value [4, 10] was 0.00 ng/mL and the “concentration in plasma” value [4, 11] was 16.61 ng/mL. The “concentration in plasma” value [4, 12] was 5.50 ng/mL, the “concentration in plasma” value [4, 13] was 3.28 ng/mL and the “concentration in plasma” value ([4]; 1 h, Dog 6, oral 3 mg/kg) was 0.00 ng/mL. The “concentration in plasma” value ([4]; 1.5 h, Dog 1, oral 3 mg/kg, hydrochloride, 3 mg/kg) was 0.23 ng/mL, the “concentration in plasma” value [4, 14] was 35.43 ng/mL and the “concentration in plasma” value [4, 15] was 3.49 ng/mL. For the same compound, the “concentration in plasma” value ([4]; 2 h, Dog 1, oral 3 mg/kg, hydrochloride, 3 mg/kg) was 7.63 ng/mL, the “concentration in plasma” value ([4]; 3 h, Dog 4, oral 3 mg/kg, hydrochloride, 3 mg/kg) was 28.36 ng/mL and the “concentration in plasma” value ([4]; 3 h, Dog 5, oral 3 mg/kg, hydrochloride, 3 mg/kg) was 40.57 ng/mL. For the same compound, the “concentration in plasma” value ([4]; 3 h, Dog 6, oral 3 mg/kg, hydrochloride, 3 mg/kg) was 14.10 ng/mL, the “concentration in plasma” value ([4]; 4 h, Dog 3, oral 3 mg/kg, hydrochloride, 3 mg/kg) was 14.10 ng/mL and the “concentration in plasma” value ([4]; 4 h, Dog 5, oral 3 mg/kg, hydrochloride, 3 mg/kg) was 23.66 ng/mL. The “concentration in plasma” value [4, 16] was 10.9 ± 6.8 ng/mL, the “concentration in plasma” value ([4]; 6 h, Dog 2, oral 3 mg/kg, hydrochloride, 3 mg/kg) was 4.50 ng/mL and the Tmax [4, 17] was 1.50 h. It also gave a Cmax [4, 18] of 19.78 ng/mL, a Cmax [4, 19] of 52.64 ng/mL and a Cmax ([4]; Dog 6, oral 3 mg/kg, hydrochloride, 3 mg/kg) of 18.56 ng/mL.
In the case of `COC(=O)C1=C(C)NC(C)=C(C(=O)OC(C)(C)CN(C)CCC(c2ccccc2)c2ccccc2)C1c1cccc([N+](=O)[O-])c1` (stereo not drawn) [Lercanidipine, methyl 1,1,N-trimethyl-N-(3,3-diphenylpropyl)-2-aminoethyl 1,4-dihydro-2,6-dimethyl-4-(3-nitrophenyl)pyridine-3,5-dicarboxylate], the “time of peak plasma levels following dosing” value [5] is listed as 2 to 3 h and the “response to high K+ after the drug has been removed” value (isolated rat aorta) is listed as “attenuated”.
